Assay results published in PubChem BioAssay (NCI).
Values joined by “and” are separate entries in the source; they are usually repeats but may differ in a detail not shown here. Identical values can stand only once.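 Compound exposure: 48 hours, 5 concentrations, 96-well plates. Here, GI50 denotes the concentration required for 50% inhibition of growth. TGI marks complete inhibition of growth.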

How the values were obtained:
Assay in all cases: growth of human tumour cells (NCI), 48 h
A498 renal = test system: A498 renal
BT-549 breast = test system: BT-549 breast
HCC-2998 colon = test system: HCC-2998 colon
HCT-116 colon = test system: HCT-116 colon
HCT-15 colon = test system: HCT-15 colon
SK-MEL-5 melanoma = test system: SK-MEL-5 melanoma
SR leukemia = test system: SR leukemia
UACC-62 melanoma = test system: UACC-62 melanoma
UO-31 renal = test system: UO-31 renal
CCRF-CEM leukemia = test system: CCRF-CEM leukemia

SMILES | GI50 (A498 renal) [µM] | TGI (A498 renal) [µM] | GI50 (BT-549 breast) [µM] | TGI (BT-549 breast) [µM] | GI50 (HCC-2998 colon) | TGI (HCC-2998 colon) | GI50 (HCT-116 colon) [µM] | TGI (HCT-116 colon) [µM] | GI50 (HCT-15 colon) | TGI (HCT-15 colon) | GI50 (SK-MEL-5 melanoma) | TGI (SK-MEL-5 melanoma) | GI50 (SR leukemia) [µM] | TGI (SR leukemia) [µM] | GI50 (UACC-62 melanoma) | TGI (UACC-62 melanoma) | GI50 (UO-31 renal) | TGI (UO-31 renal) | GI50 (CCRF-CEM leukemia) [µM] | TGI (CCRF-CEM leukemia) [µM]
COc1cc(/C=C/C(=O)CC(=O)/C=C/c2ccc(OC(=O)CCNC34CC5CC(CC(C5)C3)C4)c(OC)c2)ccc1OC(=O)CCNC12CC3CC(CC(C3)C1)C2 | 4.61 | 17.5 | 2.4 | 7.67 | 1.93 µM | 4.37 µM | 2.37 | 9.9 | 4.49 µM | 17.6 µM | 3.28 µM | 12.6 µM | 2.37 | 8.84 | 3.5 µM | 13 µM | 3.45 µM | 14.8 µM |  | 
CCC[CH2][Sn]([CH2]CCC)([O]C(=O)c1cccc(F)c1F)[O][Sn]([CH2]CCC)([CH2]CCC)[O]C(=O)c1cccc(F)c1F | 0.202 | 0.526 | 0.121 | 0.369 | 0.617 µM | 1.92 µM | 0.257 | 0.848 | 0.243 µM | 0.797 µM | 0.52 µM | 1.69 µM | 0.0771 |  | 0.173 µM | 0.423 µM | 0.506 µM | 1.72 µM |  | 
c1cncc(-c2cc(-c3cc(-c4cccnc4)n[nH]3)[nH]n2)c1 |  | > 100 |  | > 100 |  | > 100 µM |  | > 100 |  | > 100 µM |  | > 100 µM |  | > 100 |  | > 100 µM |  | > 100 µM |  | 
N#Cc1c(SCc2ccccc2)nc2[nH]c(=S)[nH]c(=S)c2c1-c1ccco1 | 55.3 | > 100 | 21 | > 100 |  |  | 21.6 | > 100 | 27.6 µM | > 100 µM | 23.9 µM | > 100 µM | 19.1 | > 100 | 21.6 µM | 46.6 µM | 61.2 µM | > 100 µM |  | 
Cc1cc(Nc2nc(N3CCOCC3)nc3ccccc23)n[nH]1 | 1.01 | 5.33 | 7.88 | 46.7 | 24.8 µM | > 100 µM | 3.64 | 27 | 3.54 µM | > 100 µM | 18.8 µM | > 100 µM | 3.65 | 28.1 |  |  | 1.38 µM | 11.2 µM | 4.03 | > 100
CC(=O)NC(Cc1c[nH]c2ccccc12)C(=O)O (stereo unspecified) |  | > 100 |  | > 100 |  |  |  | > 100 |  | > 100 µM |  | > 100 µM |  | > 100 |  | > 100 µM |  | > 100 µM |  | > 100
Cc1cc2c(cc1C)[n+](=O)c(C(=O)c1cccs1)c(C(F)(F)F)n2[O-] |  |  | 0.565 | 2.53 | 6.86 µM and 2.08 µM | 20.9 µM and 5.24 µM | 5.2 | 26.7 | 5.27 µM and 3.56 µM | 26 µM and 56 µM | 0.724 µM and 1.3 µM | 1.78 µM and 2.8 µM | 0.924 | 8.11 | 3.02 µM and 6.56 µM | 12.8 µM and 21.7 µM | 1.49 µM and 1.07 µM | 5.83 µM and 2.34 µM |  | 
O=C(CSc1nc2sc3c(c2c(=O)n1-c1ccccc1)CCCCC3)N/N=C/c1ccc(F)cc1 |  |  | 3.66 | 17.8 | 49.5 µM | > 100 µM | 2.34 | 12 | 3.77 µM | > 100 µM | 2.93 µM | 9.56 µM | 0.357 | 6.17 | 11.4 µM | 27.1 µM | 3.77 µM | > 100 µM | 3.16 | > 100
